Where two headings read alike, the source gives them in different places.
System: THP-1 cells
Assay: hTHP-1 assay: gramicidin-stimulated IL-1β detection in PMA-treated THP-1 cells
Type: cell-based, human
Protocol: The following protocol is suitable for testing the activity of the compounds disclosed herein.
1. Experimental procedure • 1.1 Cell Culture • 1) Culture THP-1 cells in the complete RPMI-1640 medium with 10% FBS at 37° C., 5% CO2. • 2) Passage the cells every 3 days by inoculating 3×10^5 cells per ml. • 1.2 Compound Preparation • Prepare the 3-fold serial dilution of the compounds with DMSO in a 384-well LDV Microplate using TECAN EVO system to generate the compound source plate with 10 concentrations. […] HC: 100 μM CRID3 (MCC950)+5 μM gramicidin LC: 5 μM Gramicidin. • 1.5 IL-1β Detection • 1) Homogenize the 5× diluent #5 with a vortex and add 1 volume of stock solution in 4 volumes of distilled water. • 2) Thaw 20× stock solution of anti-IL1β-Cryptate-antibody and anti-IL1β XL-antibody. Dilute these two antibodies to 1× with detection buffer #3. • 3) Pre-mix the two ready-to-use antibody solutions just prior to use. • 4) Dispense 4 ul of pre-mixed Anti-IL1β antibodies working solution into all wells. • 5) Seal the plate and incubate overnight at 4° C. • 6) Read the cell plate using EnVison and plot Readout vs. the test compound concentration to calculate the IC50.
2. Data Analysis: • 1. IC50 of compounds can be calculated using the following formulas • Formula for IC50
% inhibition=100−100×[HCave-Readout/(HCave−LCave)] • 2. Fit the normalized data in a dose-response manner using XLfit, and calculate the compound concentration.

[1] = Table B1, 2% fetal bovine serum, class symbol, read-out: hTHP-1 IC50
[2] = Table B1, 2% fetal bovine serum, numeric value, read-out: hTHP-1 IC50
[3] = Homo sapiens, THP-1, Table B1, 2% fetal bovine serum, class symbol, read-out: hTHP-1 IC50
[4] = Homo sapiens, THP-1, Table B1, 2% fetal bovine serum, numeric value, read-out: hTHP-1 IC50

| IC50 [1] [nM] | IC50 [2] [nM] | SMILES | other results |
| --- | --- | --- | --- |
| 40 to 200 | 53.5 | CC(C)(O)c1csc(S(=O)(=NC(=O)Nc2c3c(cc4c2CCC4)CCC3)NC#N)c1 (single isomer, unassigned) [Example 1, (S) or (R)-N-cyano-N′-(1,2,3,5,6,7-hexahydro-s-indacen-4-ylcarbamoyl)-4-(2-hydroxypropan-2-yl)thiophene-2-sulfonimidamide] |  |
| 40 to 200 | 71.7 | CC(C)(O)c1csc(S(=O)(=NC(=O)Nc2c3c(cc4c2CC4)CCC3)NC#N)c1 (single isomer, unassigned) [Example 6, (R) or (S)-N-cyano-4-(2-hydroxypropan-2-yl)-N′-((2,4,5,6-tetrahydro-1H-cyclobuta[f]inden-3-yl)carbamoyl)thiophene-2-sulfonimidamide] |  |
| < 8 | 6.8 | CC(C)(O)c1csc(S(=O)(=NC(=O)Nc2c3c(cc4c2CC4)CCC3)NC#N)c1 (single isomer, unassigned) [Example 7, (S) or (R)-N-cyano-4-(2-hydroxypropan-2-yl)-N′-((2,4,5,6-tetrahydro-1H-cyclobuta[f]inden-3-yl)carbamoyl)thiophene-2-sulfonimidamide] |  |
|  | 42.2 | CC(C)(O)c1ccc(CS(=O)(=NC(=O)Nc2c3c(cc4c2CCC4)CCC3)NC#N)cc1 (single isomer, unassigned) [Example 8, (S) or (R)-N-cyano-N′-((1,2,3,5,6,7-hexahydro-s-indacen-4-yl)carbamoyl)-1-(4-(2-hydroxypropan-2-yl)phenyl)methanesulfonimidamide] | IC50 [3]: 40 to 200 nM |
| 40 to 200 | 104 | CC(C)(O)c1ccc(CS(=O)(=NC(=O)Nc2c3c(cc4c2CCC4)CCC3)NC#N)cc1 (single isomer, unassigned) [Example 9, (R) or (S)-N-cyano-N′-((1,2,3,5,6,7-hexahydro-s-indacen-4-yl)carbamoyl)-1-(4-(2-hydroxypropan-2-yl)phenyl)methanesulfonimidamide] |  |
| 1000 to 5000 | 2440 | Cc1oc(S(=O)(=NC(=O)Nc2c(C(C)C)cc(F)cc2C(C)C)NC#N)cc1C(C)(C)O (single isomer, unassigned) [Example 10, (S) or (R)-N-cyano-N′-((4-fluoro-2,6-diisopropylphenyl)carbamoyl)-4-(2-hydroxypropan-2-yl)-5-methylfuran-2-sulfonimidamide] |  |
| 200 to 1000 | 204 | CC1CCc2c1nc1c(c2NC(=O)N=S(=O)(NC#N)c2cc(C(C)(C)O)cs2)CCC1 (single isomer, unassigned) [Example 16, (R,R) or (R,S)-N-cyano-4-(2-hydroxypropan-2-yl)-N′-(((S)-3-methyl-1,2,3,5,6,7-hexahydrodicyclopenta[b,e]pyridin-8-yl)carbamoyl)thiophene-2-sulfonimidamide] |  |
| 1000 to 5000 | 1240 | CC1CCc2c1nc1c(c2NC(=O)N=S(=O)(NC#N)c2cc(C(C)(C)O)cs2)CCC1 (single isomer, unassigned) [Example 17, (R,S) or (R,R)-N-cyano-4-(2-hydroxypropan-2-yl)-N′-(((R)-3-methyl-1,2,3,5,6,7-hexahydrodicyclopenta[b,e]pyridin-8-yl)carbamoyl)thiophene-2-sulfonimidamide] |  |

Continued, molecule first:

| SMILES | IC50 [1] [nM] | IC50 [2] [nM] | other results |
| --- | --- | --- | --- |
| NS(=O)(=NC(=O)Nc1c2c(nc(C(F)(F)F)c1C1CC1)CCC2)c1ccn(C2CC2)n1 (racemic) [Example 899, (S) or (RS)-1-cyclopropyl-N′-((3-cyclopropyl-2-(trifluoromethyl)-6,7-dihydro-5H-cyclopenta [b]pyridin-4-yl)carbamoyl)-1H-pyrazole-3-sulfonimidamide] |  |  | IC50 (Homo sapiens, THP-1, Table B2, 10% FBS, class symbol, read-out: hTHP-1 IC50 in 10% FBS): 5000 to 30000 nM; IC50 (Homo sapiens, THP-1, Table B2, 10% FBS, numeric value, read-out: hTHP-1 IC50 in 10% FBS): 9960 nM |
| CC(C)(O)c1csc(S(=O)(=NC(=O)Nc2c3c(cc4c2CCC4)CCC3)NC#N)c1 (single isomer, unassigned) [Example 2, (R) or (S)-N-cyano-N′-((1,2,3,5,6,7-hexahydro-s-indacen-4-yl)carbamoyl)-4-(2-hydroxypropan-2-yl)thiophene-2-sulfonimidamide] | 8 to 40 | 14.6 |  |
| CC(C)(O)c1ncc(S(=O)(=NC(=O)Nc2c3c(nc4c2CCC4(C)C)CCC3)NC#N)s1 (single isomer, unassigned) [Example 4, (S) or (R)-N-cyano-N′-((3,3-dimethyl-1,2,3,5,6,7-hexahydrodicyclopenta[b,e]pyridin-8-yl)carbamoyl)-2-(2-hydroxypropan-2-yl)thiazole-5-sulfonimidamide] | 40 to 200 | 59.7 |  |
| CC(C)(O)c1ncc(S(=O)(=NC(=O)Nc2c3c(nc4c2CCC4(C)C)CCC3)NC#N)s1 (single isomer, unassigned) [Example 5, (R) or (S)-N-cyano-N′-((3,3-dimethyl-1,2,3,5,6,7-hexahydrodicyclopenta[b,e]pyridin-8-yl)carbamoyl)-2-(2-hydroxypropan-2-yl)thiazole-5-sulfonimidamide] | 200 to 1000 | 236 |  |
| Cc1oc(S(=O)(=NC(=O)Nc2c(C(C)C)cc(F)cc2C(C)C)NC#N)cc1C(C)(C)O (single isomer, unassigned) [Example 11, (R) or (S)-N-cyano-N′-((4-fluoro-2,6-diisopropylphenyl)carbamoyl)-4-(2-hydroxypropan-2-yl)-5-methylfuran-2-sulfonimidamide] | 40 to 200 | 90.6 |  |
| CC(C)(O)c1nc(CO)c(S(=O)(=NC(=O)Nc2c3c(nc4c2CCC4(C)C)CCC3)NC#N)s1 (single isomer, unassigned) [Example 13, (R) or (S)-N-cyano-N′-((3,3-dimethyl-1,2,3,5,6,7-hexahydrodicyclopenta[b,e]pyridin-8-yl)carbamoyl)-4-(hydroxymethyl)-2-(2-hydroxypropan-2-yl)thiazole-5-sulfonimidamide] |  |  | IC50 [3]: 40 to 200 nM; IC50 [4]: 112 nM |
| CN(C)Cc1ccc(S(=O)(=NC(=O)Nc2c3c(cc4c2CCC4)CCC3)NC#N)c(F)c1 (single isomer, unassigned) [Example 14, (S) or (R)-N-cyano-4-((dimethylamino)methyl)-2-fluoro-N′-((1,2,3,5,6,7-hexahydro-s-indacen-4-yl)carbamoyl)benzenesulfonimidamide] | 40 to 200 | 973 |  |
| CN(C)Cc1ccc(S(=O)(=NC(=O)Nc2c3c(cc4c2CCC4)CCC3)NC#N)c(F)c1 (single isomer, unassigned) [Example 15, (R) or (S)-N-cyano-4-((dimethylamino)methyl)-2-fluoro-N′-((1,2,3,5,6,7-hexahydro-s-indacen-4-yl)carbamoyl)benzenesulfonimidamide] | 200 to 1000 | 209 |  |
| CC1CCc2c1nc1c(c2NC(=O)N=S(=O)(NC#N)c2cc(C(C)(C)O)cs2)CCC1 (single isomer, unassigned) [Example 18, (S,S) or (S,R)-N-cyano-4-(2-hydroxypropan-2-yl)-N′-(((S)-3-methyl-1,2,3,5,6,7-hexahydrodicyclopenta[b,e]pyridin-8-yl)carbamoyl)thiophene-2-sulfonimidamide] | 40 to 200 | 80.3 |  |
| CC1CCc2c1nc1c(c2NC(=O)N=S(=O)(NC#N)c2cc(C(C)(C)O)cs2)CCC1 (single isomer, unassigned) [Example 19, (S,R) or (S,S)-N-cyano-4-(2-hydroxypropan-2-yl)-N′-(((R)-3-methyl-1,2,3,5,6,7-hexahydrodicyclopenta[b,e]pyridin-8-yl)carbamoyl)thiophene-2-sulfonimidamide] | 200 to 1000 | 705 |  |
| CC(C)c1cc(C#N)c(F)c(C(C)C)c1NC(=O)N=S(=O)(NC#N)c1cnc(C(C)(C)O)s1 (single isomer, unassigned) [Example 20, (S) or (R)-N-cyano-N′-((4-cyano-3-fluoro-2,6-diisopropylphenyl)carbamoyl)-2-(2-hydroxypropan-2-yl)thiazole-5-sulfonimidamide] | 1000 to 5000 | 2750 |  |
| CC(C)c1cc(C#N)c(F)c(C(C)C)c1NC(=O)N=S(=O)(NC#N)c1cnc(C(C)(C)O)s1 (single isomer, unassigned) [Example 21, (R) or (S)-N-cyano-N′-((4-cyano-3-fluoro-2,6-diisopropylphenyl)carbamoyl)-2-(2-hydroxypropan-2-yl)thiazole-5-sulfonimidamide] | 40 to 200 | 50.8 |  |
| CC(C)c1cc(C#N)cc(C(C)C)c1NC(=O)N=S(=O)(NC#N)c1sc(C(C)(C)O)nc1CO (single isomer, unassigned) [Example 22, (R) or (S)-N-cyano-N′-((4-cyano-2,6-diisopropylphenyl)carbamoyl)-4-(hydroxymethyl)-2-(2-hydroxypropan-2-yl)thiazole-5-sulfonimidamide] |  |  | IC50 [3]: 40 to 200 nM; IC50 [4]: 79.2 nM |
